# In patent US4145554A, “3-Nitropyrazole derivatives” (Eli Lilly and Company, priority 1977, dated 1979):
# Where two headings read alike, the source gives them in different places.
# Key:
# [1] = test system: Mycoplasma gallisepticum; assay: in vitro tube dilution test (MIC); format: cell-based; conditions: Mycoplasmoides gallisepticum
# Source text: (§1) Our compound, 1-(2-hydroxyethyl)-3-nitro-4-pyrazolecarboxamide, has been extensively tested in vitro to determine the range of microorganisms against which it is active. The table of data below reports the minimum inhibitory concentration (MIC) at which the compound is effective in controlling a variety of microorganisms in a standard tube dilution test system. The MIC is reported as micrograms of compound per milliliter.
# (§2) Other compounds of our invention have also been tested in the tube dilution test and shown to have in vitro activity against a number of microorganisms. The table below reports tests of a number of exemplary compounds against exemplary microorganisms. The compounds are identified by their numbers in the listing above. The data are reported as the MIC in micrograms per milliliter against the named exemplary microorganisms.
# [2] = test system: Escherichia coli; assay: in vitro tube dilution test (MIC); format: cell-based
# Source text: as §1, §2
# [3] = test system: Staphylococcus aureus sp. 1130; assay: in vitro tube dilution test (MIC); format: cell-based
# Source text: (§3) The other preferred compounds of our invention have also been thoroughly tested in the in vitro tube dilution test.
# as §2
# [4] = test system: Salmonella dublin; assay: in vitro tube dilution test (MIC); format: cell-based; conditions: Salmonella enterica
# Source text: as §3, §2
# [5] = test system: Vibrio coli 3811; assay: in vitro tube dilution test (MIC); format: cell-based; conditions: Campylobacter coli
# Source text: as §3, §2
# [6] = test system: Pasteurella multocida; assay: in vitro tube dilution test (MIC); format: cell-based
# Source text: as §1, §3, §2
# [7] = test system: Streptococcus sp. 80; assay: in vitro tube dilution test (MIC); format: cell-based
# Source text: as §2
# [8] = test system: Salmonella typhimurium; assay: Salmonellosis in chickens, single injection to day-old chicks; format: in vivo; conditions: Salmonella enterica, TYPHIMURIUM, 168 h; single injection of 60 mg./kg.; seven days; read-out: Survival (converted)
# Protocol: A number of our 3-nitropyrazoles have been tested against an induced infection of Salmonella typhimurium in day-old chicks. The test was conducted by administering a single injection of 60 mg./kg. of the compounds to each of five chicks. The following day, the chicks were challenged by the subcutaneous injection of a dispersion of S. typhimurium organisms sufficient to kill most or all of the untreated control chicks.
# Some of the compounds were tested more than once, in which instances the data are reported as the total survivors from the multiple treatment groups. Untreated, challenged control groups of chicks were tested together with each batch of groups of chicks to which test compounds were administered. Since the mortality of the untreated control chicks varied somewhat from one group of tests to another, results of the untreated control groups are reported below with each test.
# [9] = Mycoplasma gallisepticum, tube dilution, read-out: MIC
# [10] = Staphylococcus aureus sp. 1130, tube dilution, read-out: MIC
# [11] = Salmonella dublin, tube dilution, read-out: MIC
# [12] = Vibrio coli 3811, tube dilution, read-out: MIC
# [13] = Streptococcus sp. 80, tube dilution, read-out: MIC
"MIC [1, 9]","MIC ([2]; tube dilution, read-out: MIC)","MIC [3, 10]","MIC [4, 11]","MIC [5, 12]","MIC ([6]; tube dilution, read-out: MIC)","MIC [7, 13]",Compound,further results
,,,,,,,"N#Cc1cn(-c2ccc([N+](=O)[O-])cc2)nc1[N+](=O)[O-] [Compound 92, 3-nitro-1-(4-nitrophenyl)-4-pyrazolecarbonitrile]","MIC [1]: 12.5 µg/mL; MIC [2]: > 50 µg/mL; MIC ([3]; Staphylococcus aureus, SP.1130): 6.25 µg/mL; MIC [4]: > 50 µg/mL; MIC [5]; 3811: 6.25 µg/mL; MIC [6]: 0.78 µg/mL; MIC ([7]; Streptococcus, SP.80): 50 µg/mL"
50 µg/mL,50 µg/mL,6.25 µg/mL,> 50 µg/mL,50 µg/mL,25 µg/mL,6.25 µg/mL,"NC(=O)c1cn(CCN2C(=O)c3ccccc3C2=O)nc1[N+](=O)[O-] [Compound 10, 1-(2-phthalimidoethyl)-3-nitro-4-pyrazolecarboxamide]",
50 µg/mL,> 50 µg/mL,> 50 µg/mL,> 50 µg/mL,25 µg/mL,> 50 µg/mL,> 50 µg/mL,"CCS(=O)(=O)CCn1cc(C#N)c([N+](=O)[O-])n1 [Compound 86, 1-(2-ethylsulfonyethyl)-3-nitro-4-pyrazolecarbonitrile]",
,,,,,,,"NC(=O)c1cn(CCOC(=O)c2ccc(Cl)c(Cl)c2)nc1[N+](=O)[O-] [Compound 98, 2-(4-carbamoyl-3-nitropyrazol-1-yl)ethyl 3,4-dichlorobenzoate]",responders at 60 mg/kg [8]: 100%
> 50 µg/mL,100 µg/mL,100 µg/mL,100 µg/mL,12.5 µg/mL,,100 µg/mL,"N#Cc1cn(Cc2ccccc2)nc1[N+](=O)[O-] [Compound 70, 1-benzyl-3-nitro-4-pyrazolecarbonitrile]",
25 µg/mL,> 50 µg/mL,> 50 µg/mL,> 50 µg/mL,12.5 µg/mL,25 µg/mL,> 50 µg/mL,"CSCCn1cc(C(N)=O)c([N+](=O)[O-])n1 [Compound 97, 1-[2-(methylthio)ethyl]-3-nitropyrazole-4-carboxamide]",
> 50 µg/mL,> 50 µg/mL,> 50 µg/mL,> 50 µg/mL,> 50 µg/mL,> 50 µg/mL,> 50 µg/mL,"CCSCCn1cc(C#N)c([N+](=O)[O-])n1 [Compound 72, 1-(2-ethylthioethyl)-3-nitro-4-pyrazolecarbonitrile]",
,,,,,,,"CC(O)Cn1cc(C(N)=O)c([N+](=O)[O-])n1 (stereo not drawn) [Compound 69, 1-(2-hydroxypropyl)-3-nitro-4-pyrazolecarboxamide]",responders at 60 mg/kg [8]: 100%
,,,,,,,"CCOC(=O)OCCn1cc(C(N)=O)c([N+](=O)[O-])n1 [Compound 78, [2-(4-carbamoyl-3-nitropyrazol-1-yl)ethyl] ethyl carbonate]",responders at 60 mg/kg [8]: 40%
50 µg/mL,50 µg/mL,50 µg/mL,50 µg/mL,12.5 µg/mL,,50 µg/mL,"N#Cc1cn(CC2CO2)nc1[N+](=O)[O-] (stereo not drawn) [Compound 31, 1-(2,3-epoxypropyl)-3-nitro-4-pyrazolecarbonitrile]",
50 µg/mL,> 50 µg/mL,25 µg/mL,> 50 µg/mL,50 µg/mL,0.39 µg/mL,> 50 µg/mL,"CCCCCCCCCn1cc(C(N)=O)c([N+](=O)[O-])n1 [Compound 48, 3-nitro-1-nonyl-4-pyrazolecarboxamide]",
,,,,,,,"NC(=O)c1cn(CCOC(=O)c2cccc(Cl)c2)nc1[N+](=O)[O-] [Compound 99, 2-(4-carbamoyl-3-nitropyrazol-1-yl)ethyl m-chlorobenzoate]",responders at 60 mg/kg [8]: 80%
,,,,,,,"N#Cc1cn(-c2ncc([N+](=O)[O-])s2)nc1[N+](=O)[O-] [Compound 68, 3-nitro-1-(5-nitro-2-thiazolyl)-4-pyrazolecarbonitrile]","MIC [1]: 25 µg/mL; MIC [2]: 50 µg/mL; MIC ([3]; Staphylococcus aureus, SP.1130): 25 µg/mL; MIC [4]: 50 µg/mL; MIC [5]; 3811: 12.5 µg/mL; MIC [6]: 12.5 µg/mL; MIC ([7]; Streptococcus, SP.80): 50 µg/mL"
,,,,,,,"O=C(NN=Cc1ccc([N+](=O)[O-])o1)c1cn(CCO)nc1[N+](=O)[O-] [Compound 94, 1-(2-hydroxyethyl)-3-nitropyrazole-4-carboxylic acid, 5-nitrofurfurylidene hydrazide]","MIC [1]: 6.25 µg/mL; MIC [2]: 25 µg/mL; MIC ([3]; Staphylococcus aureus, SP.1130): 6.25 µg/mL; MIC [4]: 25 µg/mL; MIC [5]; 3811: < 1.56 µg/mL; MIC [6]: < 1.56 µg/mL; MIC ([7]; Streptococcus, SP.80): 25 µg/mL"
